Results as given in patent US20190309017A1, “GLUTAMINASE INHIBITORS” (Glutaminax, LLC, priority 2018, published 2019).
Several values for one entry are separate records, joined by “and”; a condition that tells them apart may be missing. Equal values may be shown once. Residues, ends and D or L forms follow the SMILES beside them. *: point of attachment. NHOH = ON*

Legend:
[1] = tested on: IM-9 cells (Multiple Myeloma); experiment: Cell kill of IM-9 cells, CyQuant NF assay (DNA content); assay type: cell-based
Experimental: Compounds 6 and 9 were tested for their ability to kill IM-9 cells (Multiple Myeloma). Approximately 25,000 cells were plated in RPMI medium (4 mM glutamine). Compounds 6 and 9 were dissolved in PBS and pH adjusted to neutrality (200 mM stock). Compound 9 was added at 1 mM, 2 mM and 4 mM concentrations into separate wells. Compound 6 was added at 0.25 mM and 1 mM concentrations into separate wells. The cells were incubated for 48 and 96 hours in the presence of […], and 48 and 72 hours in the presence of compound 6. Cell number was determined with the CyQuant NF assay (measures DNA content) according to manufacturer's instruction (Invitrogen). For the sake of clarity, compounds 6 and 9 are reproduced below: […]

[2] = tested on: Panc1 cells (Pancreatic cancer); experiment: Cell kill of Panc1 cells, CyQuant NF assay (DNA content); assay type: cell-based
Experimental: Compounds 6 and 9 were tested with Panc1 cells (Pancreatic cancer) plated in DMEM medium (2 mM glutamine). Approximately 30,000 live cells were plated. Compounds were dissolved in PBS and pH adjusted to neutrality (200 mM stock). Compound 9 was added at 1 mM, 2 mM and 4 mM concentrations into separate wells. Compound 6 was added at 0.25 mM and 1 mM concentrations into separate wells. The cells were incubated for 48 and 96 hours in the presence of compound 9, and 48 and 72 hours in the presence of compound 6. Cell number was determined with the CyQuant NF assay (measures DNA content) according to manufacturer's instruction (Invitrogen).

[3] = 1 mM compound, Day 2, DMEM medium (2 mM glutamine)

Row | Compound | Cells killed v. control ([1]; 1 mM compound, Day 4, RPMI medium (4 mM glutamine)) | Cells killed v. control ([1]; 2 mM compound, Day 2, RPMI medium (4 mM glutamine)) | Cells killed v. control ([1]; 2 mM compound, Day 4, RPMI medium (4 mM glutamine)) | Cells killed v. control ([1]; 4 mM compound, Day 2, RPMI medium (4 mM glutamine)) | Cells killed v. control ([1]; 4 mM compound, Day 4, RPMI medium (4 mM glutamine)) | Cells killed v. control [2, 3] | Cells killed v. control ([2]; 2 mM compound, Day 2, DMEM medium (2 mM glutamine)) | Cells killed v. control ([2]; 2 mM compound, Day 4, DMEM medium (2 mM glutamine)) | Cells killed v. control ([2]; 4 mM compound, Day 2, DMEM medium (2 mM glutamine)) | Cells killed v. control ([2]; 4 mM compound, Day 4, DMEM medium (2 mM glutamine)) | Cells killed v. control ([1]; 0.25 mM compound, Day 3, RPMI medium (4 mM glutamine)) | Cells killed v. control ([1]; 1 mM compound, Day 2, RPMI medium (4 mM glutamine)) | Cells killed v. control ([1]; 1 mM compound, Day 3, RPMI medium (4 mM glutamine)) | Cells killed v. control ([2]; 0.25 mM compound, Day 2, DMEM medium (2 mM glutamine)) | Cells killed v. control ([2]; 0.25 mM compound, Day 3, DMEM medium (2 mM glutamine)) | Cells killed v. control ([2]; 1 mM compound, Day 3, DMEM medium (2 mM glutamine))
1 | NC(=O)CCC(NC(=O)C(N)CCC(=O)O)C(=O)NO (stereo not drawn) [Compound 9, α-Glu-Gln (NHOH mimetic)] (H-Glu-Gln-{NHOH}; configuration not given here) | ~58% and 58% | ~29% | ~66% | ~61% | ~96% | ~0% | ~7% | ~9% | ~11% | ~55% |  |  |  |  |  | 
2 | NC(=O)CC[C@H](NC(=O)CC[C@H](N)C(=O)O)C(=O)NO [Compound 6, β-Glu-Gln (NHOH mimetic)] |  |  |  |  |  | ~66% |  |  |  |  | ~87% | ~83% | ~91% | ~32% | ~50% | ~75%
